Test systems include ACHN; BT-549; CAKI-1; HCT-15; HL-60; HOP-62; KM12; MDA-MB-231; NCI-H226; NCI-H522; OVCAR-3; OVCAR-4; RPMI-8226; RXF 393; SK-MEL-28; SK-MEL-5; SNB-19; T47D; TK-10; UACC-62.
Experiment in all cases: NCI-60 cell line screen, 48 h

This is an account of results in ChEMBL document CHEMBL1201862, “PubChem BioAssay data set” (2004).

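All cell lines were grown in 96-well plates and treated with compound for 48 hours. Abbreviation: GI50, concentration required for 50% inhibition of growth.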 Activity calls are given as the source filed them. Cut-off read from the data, not from the text of the source: active = GI50 up to about 1.1 µM and inactive = higher.

In the case of `CN(C)CCCN1c2ccccc2C(C)(C)c2ccccc21` [DIMETACRINE], the GI50 with ACHN was 15.3 µM (inactive); in the test on BT-549, 14.9 µM (inactive); in the test on CAKI-1 it was 12.6 µM (inactive); in the test with HCT-15 it was 16.3 µM; with HL-60, 15.1 µM (inactive); in the test on HOP-62, 14.8 µM (inactive). The GI50 is 14.1 µM (inactive) in the test on KM12; 14.7 µM (inactive) with MDA-MB-231; 15.6 µM (inactive) with NCI-H226; 14.8 µM (inactive) in the test on NCI-H522; 14 µM (inactive) in the test with OVCAR-3; 13.9 µM (inactive) in the test with OVCAR-4. Further, the GI50 was 13.1 µM (inactive) in the test on RPMI-8226; 12.9 µM (inactive) with RXF 393; 15.4 µM (inactive) in the test on SK-MEL-28; 13.4 µM (inactive) with SK-MEL-5; 15.5 µM (inactive) in the test with SNB-19; 17.2 µM (inactive) in the test with T47D. Moreover, the GI50 was 14.2 µM (inactive) in the test with TK-10 and 13.1 µM (inactive) in the test on UACC-62.
